We go through twelve compounds from patent publication US20220177477A1 (Central China Normal University, priority 2019, published 2022).

In this assay the target is T1, TRKA (Homo sapiens, UniProt P04629).
T1 construct: purchased Carna Biosciences 08-186
The experiment in a line: In vitro biochemical HTRF KinEASE kinase inhibition, TRKA. The settings on record: wild-type kinase, final ATP 3.727 μmol/L; read-out: TRKA IC50. (In general: TR-FRET usually uses a lanthanide donor and a delayed reading to cut background.)

Molecules are shown by their SMILES.

T1 sequence (P04629 33-796): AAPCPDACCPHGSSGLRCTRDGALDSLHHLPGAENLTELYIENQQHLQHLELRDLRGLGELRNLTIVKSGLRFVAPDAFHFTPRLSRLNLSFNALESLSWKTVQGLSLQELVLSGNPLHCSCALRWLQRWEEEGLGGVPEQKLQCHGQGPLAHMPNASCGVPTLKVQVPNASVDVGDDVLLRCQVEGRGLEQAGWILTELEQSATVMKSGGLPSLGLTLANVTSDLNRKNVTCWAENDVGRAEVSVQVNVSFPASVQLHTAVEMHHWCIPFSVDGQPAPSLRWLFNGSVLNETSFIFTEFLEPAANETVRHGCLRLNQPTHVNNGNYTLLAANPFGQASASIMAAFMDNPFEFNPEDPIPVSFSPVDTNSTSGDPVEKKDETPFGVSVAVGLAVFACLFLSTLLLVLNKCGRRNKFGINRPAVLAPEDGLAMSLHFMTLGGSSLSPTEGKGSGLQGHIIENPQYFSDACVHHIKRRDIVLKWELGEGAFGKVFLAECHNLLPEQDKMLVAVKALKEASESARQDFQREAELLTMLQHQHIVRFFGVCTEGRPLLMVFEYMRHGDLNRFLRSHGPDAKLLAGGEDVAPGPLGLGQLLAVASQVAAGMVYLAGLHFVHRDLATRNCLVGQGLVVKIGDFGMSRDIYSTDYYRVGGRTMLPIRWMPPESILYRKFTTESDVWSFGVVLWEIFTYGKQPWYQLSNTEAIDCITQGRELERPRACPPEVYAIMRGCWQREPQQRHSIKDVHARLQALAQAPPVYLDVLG

On to `CC(Nc1ccn2ncc(-c3cnn(CC(F)F)c3)c2n1)c1cc(F)ccc1OCC(F)F` (stereo not drawn) [Compound 6, N-(1-(2-(2,2-difluoroethoxy)-5-fluorophenyl)ethyl)-3-(1-(2,2-difluoroethyl)-1H-pyrazol-4-yl) pyrazolo [1,5-a] pyrimidin-5-amine], for which the half-maximal inhibitory concentration (IC50) (as a rule, the concentration that gives 50% inhibition) is 12.4 nM.

`CC(Nc1ccn2ncc(-c3cnn(C4CCCCC4O)c3)c2n1)c1cc(F)ccc1OCC(F)F` (stereo not drawn) [Compound 9, 2-(4-(5-((1-(2-(2,2-difluoroethoxy)-5-fluorophenyl)ethyl)amino)pyrazolo [1,5-a]pyrimidin-3-yl)-1H-pyrazol-1-yl) cyclohexan-1-ol]: the IC50 is 11.4 nM.

`CC(Nc1ccn2ncc(-c3cnn(C4CCOCC4)c3)c2n1)c1cc(F)ccc1OCC(F)F` (stereo not drawn) [Compound 11, N-(1-(2-(2,2-difluoroethoxy)-5-fluorophenyl)ethyl)-3-(1-(tetrahydro-2H-pyran-4-yl)-1H-pyrazol-4-yl) pyrazolo [1,5-a] pyrimidin-5-amine]: the IC50 worked out at 11.8 nM.

As for `CC(Nc1ccn2ncc(-c3cnn(S(C)(=O)=O)c3)c2n1)c1cc(F)ccc1OCC(F)F` (stereo not drawn) [Compound 13, N-(1-(2-(2,2-difluoroethoxy)-5-fluorophenyl)ethyl)-3-(1-(methylsulfonyl)-1H-pyrazol-4-yl) pyrazolo [1,5-a] pyrimidin-5-amine], the IC50 worked out at 10.4 nM.

For the compound `CC(Nc1ccn2ncc(-c3cnn(C)c3)c2n1)c1cc(F)cc(F)c1OCC(F)F` (stereo not drawn) [Compound 15, N-(1-(2-(2,2-difluoroethoxy)-3,5-difluorophenyl)ethyl)-3-(1-methyl-1H-pyrazol-4-yl) pyrazolo [1,5-a] pyrimidin-5-amine], the IC50 was determined as 11.7 nM.

In the case of `CC(Nc1ccn2ncc(-c3cnn(C)c3)c2n1)c1ccccc1OCC(F)F` (stereo not drawn) [Compound 17, N-(1-(2-(2,2-difluoroethoxy)phenyl)ethyl)-3-(1-methyl-1H-pyrazol-4-yl) pyrazolo [1,5-a] pyrimidin-5-amine], the IC50 amounted to 18.3 nM.

In the case of `CC(Nc1ccn2ncc(-c3cnn(C)c3)c2n1)c1cc(F)ccc1O` (stereo not drawn) [Compound a1-2, 4-fluoro-2-(1-((3-(1-methyl-1H-pyrazol-4-yl)pyrazolo [1,5-a]pyrimidin-5-yl)amino)ethyl) phenol], the IC50 was 9 nM.

For the compound `CC(Nc1ccn2ncc(-c3cnn(C4CCCCC4O)c3)c2n1)c1cc(F)ccc1O` (stereo not drawn) [Compound a3-4, 4-fluoro-2-(1-((3-(1-(2-hydroxycyclohexyl)-1H-pyrazol-4-yl)pyrazolo [1,5-a]pyrimidin-5-yl)amino)ethyl) phenol], the IC50 is 24.2 nM.

On to `CC(Nc1ccn2ncc(-c3cnn(CCO)c3)c2n1)c1cc(F)ccc1OC(F)F` (stereo not drawn) [Compound a5-9, 2-(4-(5-((1-(2-(difluoromethoxy)-5-fluorophenyl)ethyl)amino)pyrazolo [1,5-a]pyrimidin-3-yl)-1H-pyrazol-1-yl) ethan-1-ol], for which the IC50 was found to be 4 nM.

With `CC(Nc1ccn2ncc(-c3cnn(C4CCOCC4)c3)c2n1)c1cc(F)ccc1OC(F)F` (stereo not drawn) [Compound a6-10, N-(1-(2-(difluoromethoxy)-5-fluorophenyl)ethyl)-3-(1-(tetrahydro-2H-pyran-4-yl)-1H-pyrazol-4-yl) pyrazolo [1,5-a] pyrimidin-5-amine], the concentration for half-maximal inhibition (IC50) is 26.5 nM.

`CCOc1ccc(F)cc1C(C)Nc1ccn2ncc(-c3cnn(C4CCOCC4)c3)c2n1` (stereo not drawn) [Compound a7-12, N-(1-(2-ethoxy-5-fluorophenyl)ethyl)-3-(1-(tetrahydro-2H-pyran-4-yl)-1H-pyrazol-4-yl) pyrazolo [1,5-a] pyrimidin-5-amine]: the IC50 worked out at 23 nM.

As for `CC(Nc1ccn2ncc(-c3cnn(C(F)F)c3)c2n1)c1cc(F)ccc1OCCO` (stereo not drawn) [Compound a8-13, 2-(2-(1-((3-(1-(difluoromethyl)-1H-pyrazol-4-yl)pyrazolo [1,5-a]pyrimidin-5-yl)amino)ethyl)-4-fluorophenoxy) ethanol], the IC50 was found to be 40.9 nM.
